Assay: xn = mol fraction of the nth substance listed
Conditions: 100 kPa

CCCC[n+]1ccn(C)c1.O=S(=O)([N-]S(=O)(=O)C(F)(F)F)C(F)(F)F + O=C1CCCCO1
x1 = 1
Conditions	electrical conductivity [S/m]
293.15 K	0.337
303.15 K	0.472
308.15 K	0.552
313.15 K	0.64
323.15 K	0.835

CCCCCCCCn1cc[n+](C)c1.O=S(=O)([N-]S(=O)(=O)C(F)(F)F)C(F)(F)F + O=C1CCCO1
electrical conductivity [S/m]
Conditions	x2 = 0	x2 = 0.0997	x2 = 0.2993	x2 = 0.5048	x2 = 0.6963	x2 = 0.7994	x2 = 0.8503	x2 = 0.8999	x2 = 0.9514
293.15 K	0.106	0.126	0.184	–	0.601	0.845	0.953	0.984	0.653
298.15 K	–	0.161	0.235	0.396	–	0.955	1.06	1.07	0.718
303.15 K	0.17	0.199	0.28	0.474	0.83	1.07	1.17	1.18	–
308.15 K	–	0.24	0.342	0.553	0.94	1.21	1.29	1.29	0.853
313.15 K	0.254	0.285	–	0.636	1.06	1.33	1.41	1.39	0.915
318.15 K	–	–	0.48	0.744	1.19	1.47	1.53	–	0.976
323.15 K	0.361	0.397	–	0.817	1.33	1.56	1.64	1.59	–

CCCCCC[n+]1ccn(C)c1.O=S(=O)([N-]S(=O)(=O)C(F)(F)F)C(F)(F)F + O=C1CCCO1
electrical conductivity [S/m]
Conditions	x2 = 0	x2 = 0.1076	x2 = 0.2973	x2 = 0.4956	x2 = 0.6996	x2 = 0.8001	x2 = 0.8456	x2 = 0.9001	x2 = 0.9493
293.15 K	0.176	0.21	–	0.47	0.819	1.07	1.13	–	–
298.15 K	0.221	–	0.362	0.556	0.932	1.19	1.25	1.23	–
303.15 K	–	0.319	0.431	–	1.05	1.31	1.36	–	0.896
308.15 K	–	–	–	0.751	1.17	1.44	1.49	–	0.968
313.15 K	0.398	–	–	0.863	–	1.57	–	1.57	1.04
318.15 K	0.467	0.539	–	0.979	1.46	1.71	–	1.69	–
323.15 K	–	–	–	1.11	1.61	–	–	1.8	1.17

CCCC[n+]1ccn(C)c1.O=S(=O)([N-]S(=O)(=O)C(F)(F)F)C(F)(F)F + O=C1CCCO1
x2 = 0
Conditions	electrical conductivity [S/m]	viscosity [mPa·s]
293.15 K	0.337	62.1
308.15 K	0.552	33.65
313.15 K	0.64	28.28
318.15 K	0.733	23.91
323.15 K	0.835	20.64

CCCn1cc[n+](C)c1C.O=S(=O)([N-]S(=O)(=O)C(F)(F)F)C(F)(F)F + O=C1CCCO1
electrical conductivity [S/m]
Conditions	293.15 K	298.15 K	303.15 K	308.15 K	313.15 K	318.15 K	323.15 K
x2 = 0	0.196	–	0.338	0.417	0.503	0.59	0.687
x2 = 0.1289	0.24	0.312	–	0.479	0.578	0.678	0.788
x2 = 0.2006	–	0.351	0.444	–	0.65	0.759	–
x2 = 0.3027	0.343	0.428	0.537	0.646	0.779	0.907	1.02
x2 = 0.3969	0.451	0.539	0.657	0.789	0.935	1.09	1.23
x2 = 0.4952	0.593	0.708	0.844	0.995	1.16	–	1.46
x2 = 0.5969	0.797	0.927	1.07	1.21	1.38	1.54	1.7
x2 = 0.6992	–	1.13	1.27	–	–	1.74	1.92
x2 = 0.8002	–	1.31	1.45	1.59	1.73	–	2.07
x2 = 0.8508	1.25	1.38	–	1.63	–	1.91	2.06
x2 = 0.8999	–	1.32	1.44	1.55	–	1.81	1.94
x2 = 0.9495	0.875	0.954	1.03	–	1.2	1.29	1.39

— a compilation of properties of binary mixtures (doi:10.2298/jsc190413047v)
